The text below walks through data of patent US12264134B2 (Merck Sharp & Dohme LLC, priority 2018, dated 2025).

The target of the assay is IDO1 (Homo sapiens, UniProt P14902). Kind of assay: IDO1 Cellular Assay in HeLa Cells Stimulated with IFNγ. The class given is cell-based. The following applies: read-out: HeLa Cell Potency, IC50.

The structures appear in SMILES notation.

In general, IC50 refers to the concentration at which inhibition is half-maximal.

Sequence of IDO1 (P14902 whole entry): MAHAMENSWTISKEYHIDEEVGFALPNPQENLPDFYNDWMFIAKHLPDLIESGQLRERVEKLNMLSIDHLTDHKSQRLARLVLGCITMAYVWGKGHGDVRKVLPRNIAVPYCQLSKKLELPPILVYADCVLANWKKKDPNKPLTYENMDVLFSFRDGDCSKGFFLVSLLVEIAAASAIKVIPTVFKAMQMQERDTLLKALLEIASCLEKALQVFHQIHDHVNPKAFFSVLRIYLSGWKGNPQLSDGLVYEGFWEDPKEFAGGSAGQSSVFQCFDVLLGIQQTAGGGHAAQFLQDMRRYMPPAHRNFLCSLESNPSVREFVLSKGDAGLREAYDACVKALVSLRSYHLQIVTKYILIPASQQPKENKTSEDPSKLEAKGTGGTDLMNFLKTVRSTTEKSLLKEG

Regarding `C[C@@H]1CN(C(=O)c2nn(CC(=O)N3CCN(c4ccc5c(c4)CCO5)CC3)c3c2CCC3)C[C@H](C)O1` [Example 31, 1-[4-(2,3-dihydro-1-benzofuran-5-yl)piperazin-1-yl]-2-{3-[(2R,6S)-2,6-dimethylmorpholine-4-carbonyl]-5,6-dihydrocyclopenta[c]pyrazol-1(4H)-yl}ethan-1-one], the IC50 amounted to 178 nM.
With `Cc1cccc(N2CCN(C(=O)Cn3nc(C(=O)N4CCC(C(N)=O)CC4)c4c3CCC4)CC2)c1C` [Example 137, 1-(1-{2-[4-(2,3-dimethylphenyl)piperazin-1-yl]-2-oxoethyl}-1,4,5,6-tetrahydrocyclopenta[c]pyrazole-3-carbonyl)piperidine-4-carboxamide], the IC50 was found to be 19.3 nM.
For `Cc1cccc(N2CCN(C(=O)Cn3nc(C(=O)N4CC5CCC(C4)N5C)c4c3C[C@H]3C[C@@H]43)CC2)c1C` [Example 270, 1-[4-(2,3-dimethylphenyl)piperazin-1-yl]-2-[(3bR,4aR)-3-(8-methyl-3,8-diazabicyclo[3.2.1]octane-3-carbonyl)-3b,4,4a,5-tetrahydro-1H-cyclopropa[3,4]cyclopenta[1,2-c]pyrazol-1-yl]ethan-1-one], the IC50 worked out at 5.75 nM.
Consider `C[C@@H]1CN(C(=O)c2nn(CC(=O)N3CCN(c4ccc(F)cc4)CC3)c3c2CCC3)C[C@H](C)O1` [Example 28, 2-{3-[(2R,6S)-2,6-dimethylmorpholine-4-carbonyl]-5,6-dihydrocyclopenta[c]pyrazol-1(4H)-yl}-1-[4-(4-fluorophenyl)piperazin-1-yl]ethan-1-one], for which the IC50 was 337 nM.
Take `Cc1cccc(N2CCN(C(=O)Cn3nc(C(=O)N4CCC(O)C(F)C4)c4c3CCCCC4)CC2)c1C` (centres unmarked) [Example 411, 1-(4-(2,3-dimethylphenyl)piperazin-1-yl)-2-(3-(3-fluoro-4-hydroxypiperidine-1-carbonyl)-5,6,7,8-tetrahydrocyclohepta[c]pyrazol-1(4H)-yl)ethanone]: the IC50 stood at 8.74 nM.
With `Cc1cccc(N2CCN(C(=O)Cn3nc(C(=O)N4CCN(C(=O)C(C)(C)O)CC4)c4c3CCC4)CC2)c1C` [Example 117, 1-[4-(1-{2-[4-(2,3-dimethylphenyl)piperazin-1-yl]-2-oxoethyl}-1,4,5,6-tetrahydrocyclopenta[c]pyrazole-3-carbonyl)piperazin-1-yl]-2-hydroxy-2-methylpropan-1-one] the figure was 15.1 nM; with `Cc1c(C(F)F)cccc1N1CCN(C(=O)Cn2nc(C(=O)N3CC[C@H](O)[C@H](F)C3)c3c2C[C@H]2C[C@@H]32)CC1` [Example 348, 1-(4-(3-(difluoromethyl)-2-methylphenyl)piperazin-1-yl)-2-((3bR,4aR)-3-((3R,4S)-3-fluoro-4-hydroxypiperidine-1-carbonyl)-3b,4,4a,5-tetrahydro-1H-cyclopropa[3,4]cyclopenta[1,2-c]pyrazol-1-yl)ethanone], 1.38 nM; with `Cc1ccc(N2CCN(C(=O)Cn3nc(C(=O)N4C[C@@H](C)O[C@@H](C)C4)c4c3CCC4)CC2)c(F)c1` [Example 56, 2-{3-[(2R,6S)-2,6-dimethylmorpholine-4-carbonyl]-5,6-dihydrocyclopenta[c]pyrazol-1(4H)-yl}-1-[4-(2-fluoro-4-methylphenyl)piperazin-1-yl]ethan-1-one], 126 nM.
Take `Cc1cccc(N2CCN(C(=O)Cn3nc(C(=O)N4CC[C@H](N)[C@H](F)C4)c4c3CCC4)CC2)c1C` [Example 211, [(3R,4S)-1-[1-[2-[4-(2,3-dimethylphenyl)piperazin-1-yl]-2-oxo-ethyl]-5,6-dihydro-4H-cyclopenta[c]pyrazole-3-carbonyl]-3-fluoro-4-piperidyl]ammonium;formate]: the IC50 was found to be 72.1 nM.
The result for `Cc1cccc(N2CCN(C(=O)Cn3nc(C(=O)N4CC[C@H](O)[C@H](F)C4)c4c3CCC4)CC2)c1C` [Example 97, 1-[4-(2,3-dimethylphenyl)piperazin-1-yl]-2-{3-[(3R,4S)-3-fluoro-4-hydroxypiperidine-1-carbonyl]-5,6-dihydrocyclopenta[c]pyrazol-1(4H)-yl}ethan-1-one] reads 17.1 nM.
For `Cc1cccc(N2CCN(C(=O)Cn3nc(C(=O)N4CCC(O)(CF)CC4)c4c3C[C@H]3C[C@@H]43)C3(CC3)C2)c1C` [Example 358], the IC50 was determined as 1.59 nM.
Regarding `Cc1cccc(N2CCN(C(=O)Cn3nc(C(=O)N4CC[C@H]5[C@@H](C4)NC(=O)N5C)c4c3C[C@H]3C[C@@H]43)CC2)c1C` [Example 237, (3aR,7aS)-5-[(3bR,4aR)-1-{2-[4-(2,3-dimethylphenyl)piperazin-1-yl]-2-oxoethyl}-3b,4,4a,5-tetrahydro-1H-cyclopropa[3,4]cyclopenta[1,2-c]pyrazole-3-carbonyl]-1-methyloctahydro-2H-imidazo[4,5-c]pyridin-2-one], the IC50 worked out at 79.1 nM.
Regarding `Cc1cccc(N2CCN(C(=O)Cn3nc(C(=O)N4CCN(C(=O)CO)CC4)c4c3CC3CC43)CC2)c1C` (centres unmarked) [Example 287, 1-[4-(2,3-dimethylphenyl)piperazin-1-yl]-2-{3-[4-(hydroxyacetyl)piperazine-1-carbonyl]-3b,4,4a,5-tetrahydro-1H-cyclopropa[3,4]cyclopenta[1,2-c]pyrazol-1-yl}ethan-1-one], the IC50 amounted to 1.64 nM.
Turning to `Cc1cccc(N2CCN(C(=O)Cn3nc(C(=O)N4CC[C@H](O)[C@@H](F)C4)c4c3C[C@H]3C[C@@H]43)C3(CC3)C2)c1C` [Example 359], the IC50 is 1.93 nM.
As for `Cc1cccc(N2CCN(C(=O)Cn3nc(C(=O)N4CCC5(CC4)COC(CO)C5)c4c3C[C@H]3C[C@@H]43)CC2)c1C` (stereo partly drawn) [Example 275, 1-[4-(2,3-dimethylphenyl)piperazin-1-yl]-2-{(3bR,4aR)-3-[3-(hydroxymethyl)-2-oxa-8-azaspiro[4.5]decane-8-carbonyl]-3b,4,4a,5-tetrahydro-1H-cyclopropa[3,4]cyclopenta[1,2-c]pyrazol-1-yl}ethan-1-one], the IC50 stood at 0.8 nM.
With `Cc1c(N2CCN(C(=O)Cn3nc(C(=O)N4CCN(C(=O)CO)CC4)c4c3C[C@H]3C[C@@H]43)CC2)cccc1C(F)(F)F` [Example 337, 2-hydroxy-1-(4-((3bR,4aR)-1-(2-(4-(2-methyl-3-(trifluoromethyl)phenyl)piperazin-1-yl)-2-oxoethyl)-3b,4,4a,5-tetrahydro-1H-cyclopropa [3,4]cyclopenta[1,2-c]pyrazole-3-carbonyl)piperazin-1-yl)ethanone] the figure was 2.85 nM; with `Cc1cccc(N2CCN(C(=O)Cn3nc(C(=O)N4CCC(CO)CC4)c4c3C[C@H]3C[C@@H]43)CC2)c1C` [Example 249, 1-[4-(2,3-dimethylphenyl)piperazin-1-yl]-2-{(3bR,4aR)-3-[4-(hydroxymethyl)piperidine-1-carbonyl]-3b,4,4a,5-tetrahydro-1H-cyclopropa[3,4]cyclopenta[1,2-c]pyrazol-1-yl}ethan-1-one], 0.62 nM; with `Cc1c(Cl)cccc1N1CCN(C(=O)Cn2nc(C(=O)N3CCC(O)C(C)C3)c3c2C[C@H]2C[C@@H]32)CC1` (stereo in doubt) [Example 353, 1-(4-(3-chloro-2-methylphenyl)piperazin-1-yl)-2-((3bR,4aR)-3-((3R,4S)-4-hydroxy-3-methylpiperidine-1-carbonyl)-3b,4,4a,5-tetrahydro-1H-cyclopropa[3,4]cyclopenta[1,2-c]pyrazol-1-yl)ethanone], 1.18 nM.
The result for `Cc1cccc(N2CCN(C(=O)Cn3nc(C(=O)N4CC[C@H](F)[C@@H](O)C4)c4c3CCC4)CC2)c1C` (racemic) [Example 208, 1-[4-(2,3-dimethylphenyl)piperazin-1-yl]-2-[3-[rac-(3S,4S)-4-fluoro-3-hydroxy-piperidine-1-carbony]-5,6-dihydro-4H-cyclopenta[c]pyrazol-1-yl]ethanone] reads 30.9 nM.
With `O=C(Cn1nc(C(=O)N2CC[C@H](O)[C@H](F)C2)c2c1CCC2)N1CCN(C2CCc3ccccc32)CC1` (single isomer, unassigned) [Example 440] the figure was 2520 nM; with `Cc1c(Cl)cccc1N1CCN(C(=O)Cn2nc(C(=O)N3CC[C@@H](O)[C@@H](F)C3)c3c2CCC(F)C3)CC1` (stereo partly drawn) [Example 370, 1-(4-(3-chloro-2-methylphenyl)piperazin-1-yl)-2-(5-fluoro-3-((3S,4R)-3-fluoro-4-hydroxypiperidine-1-carbonyl)-4,5,6,7-tetrahydro-1H-indazol-1-yl)ethan-1-one], 9.52 nM; with `Cc1cc(N2CCN(C(=O)Cn3nc(C(=O)N4C[C@@H](C)O[C@@H](C)C4)c4c3CCC4)CC2)cc(C)c1Cl` [Example 40, 1-[4-(4-chloro-3,5-dimethylphenyl)piperazin-1-yl]-2-{3-[(2R,6S)-2,6-dimethylmorpholine-4-carbonyl]-5,6-dihydrocyclopenta[c]pyrazol-1(4H)-yl}ethan-1-one], 223 nM.
Take `Cc1cccc(N2CCN(C(=O)Cn3nc(C(=O)N4CCC5(CC4)COC(=O)N5)c4c3CCC4)CC2)c1C` [Example 163, 8-(1-{2-[4-(2,3-dimethylphenyl)piperazin-1-yl]-2-oxoethyl}-1,4,5,6-tetrahydrocyclopenta[c]pyrazole-3-carbonyl)-3-oxa-1,8-diazaspiro[4.5] decan-2-one]: the half-maximal inhibitory concentration (IC50) was found to be 10.3 nM.
With `Cc1cccc(N2CCN(C(=O)Cn3nc(C(=O)N4CCCCC4C(C)(C)O)c4c3C[C@H]3C[C@@H]43)CC2)c1C` (stereo partly drawn) [Example 271, 1-[4-(2,3-dimethylphenyl)piperazin-1-yl]-2-{(3bR,4aR)-3-[2-(2-hydroxypropan-2-yl)piperidine-1-carbonyl]-3b,4,4a,5-tetrahydro-1H-cyclopropa[3,4]cyclopenta[1,2-c]pyrazol-1-yl}ethan-1-one] the figure was 3.66 nM; with `Cc1cccc(N2CCN(C(=O)Cn3nc(C(=O)N4CCC(CO)(CO)CC4)c4c3C[C@H]3C[C@@H]43)CC2)c1C` [Example 221, 2-{(3bR,4aR)-3-[4,4-bis(hydroxymethyl)piperidine-1-carbonyl]-3b,4,4a,5-tetrahydro-1H-cyclopropa[3,4]cyclopenta[1,2-c]pyrazol-1-yl}-1-[4-(2,3-dimethylphenyl)piperazin-1-yl]ethan-1-one], 3.76 nM; with `Cc1cccc(N2CCN(C(=O)Cn3nc(C(=O)N4CCC(NC(=O)OC(C)(C)C)CC4)c4c3CCCC4)CC2)c1C` [Example 469, tert-butyl (1-(1-(2-(4-(2,3-dimethylphenyl)piperazin-1-yl)-2-oxoethyl)-4,5,6,7-tetrahydro-1H-indazole-3-carbonyl)piperidin-4-yl) carbamate], 2.48 nM.
